These results are taken from patent US11377444B2, “Pyridopyrimidine compounds acting as mTORC 1/2 dual inhibitors” (MEDSHINE DISCOVERY INC., priority 2017, dated 2022).

Where “and” joins values, the source holds several entries; their conditions need not be identical. Equal entries are not always repeated.

In one assay the test system is MCF-7 cell. The assay can be described thus: Cell proliferation inhibitory activity (Cell-Titer-Glo), MCF-7. In kind it is cell-based. The following applies: Homo sapiens, MCF7, 72 h; 3 days incubation. The essentials:
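OE21, HT-29, MCF-7 and N87 cells seeded at 1000 cells/well in RPMI 1640 with 10% serum, treated with a 10-point 3-fold dilution series from 1 μM final (0.25% DMSO), duplicates. After 3 days at 37° C, viability read as ATP-dependent luminescence with Cell-Titer-Glo.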

The test system of assay [1] is human breast cancer MCF-7 cell subcutaneous xenograft tumor. As to the kind of experiment: In vivo pharmacodynamic study, MCF-7 subcutaneous xenograft tumor. Conditions: for Tumor volume (27th day): mean ± SEM; for Tumor volume (day 0): day 0, mean ± SEM. Further details: species or system BALB/c nude mouse. The source says:
Experimental Embodiment 4: In Vivo Pharmacodynamic Study on BALB/c Nude Mouse Model of Human Breast Cancer MCF-7 Cell Subcutaneous Xenograft Tumor
Experimental objective: To study the efficacy of the test compounds on human breast cancer MCF-7 cell subcutaneous xenograft tumor in BALB/c nude mouse model.
Experimental animals: Female BALB/c nude mice, 6-8 weeks old, weighing 18-22 grams; supplier: Shanghai Xipuer-Bikai Experimental Animal Co., Ltd.
Human breast cancer MCF-7 cells (ECACC, article number: 86012803) were subjected to in vitro monolayer culture under the conditions of EMEM (EBSS)+2 mM […]+1% Non Essential Amino Acids (NEAA) medium containing 10% fetal bovine serum, 100 U/mL penicillin and 100 μg/mL streptomycin, and 37° C., 5% CO2incubator. Conventional digestion treatment was carried out with trypsin-EDTA twice a week for cell passage. When the cell saturation was 80%-90%, and the quantity reached the requirement, the cells were collected, counted and inoculated.
Estrogen tablets (0.18 mg) were inoculated into the left back of each mouse three days before cell inoculation, 0.2 mL (1×10^7) MCF-7 cells (added with matrigel, volume ratio of 1:1) were subcutaneously inoculated into the right back of each mouse. When the average volume of tumor reached 142 mm^3, the mice were divided into groups and began to be administrated.
The test compounds were prepared into clear solutions of 0.75 mg/mL, 1.5 mg/mL and 3 mg/mL. The vehicles were 5% DMSO+30% polyethylene glycol 300+65% water.
The experimental indexes were used for investigating whether the growth of the tumors had been inhibited, delayed or cured. The diameters of the tumors were measured with vernier calipers twice a week. The calculation formula of the tumor volume was: V=0.5a×b^2, wherein a and b represent the long and short diameters of the tumor respectively.
The antitumor efficacy of the compound was evaluated by TGI (%) or relative tumor proliferation rate T/C (%). TGI (%) reflects the inhibition rate of the tumor growth. Calculation of TGI (%): TGI (%)=[1−(average tumor volume at the end of administration in the treatment group−average tumor volume at the beginning of administration in the treatment group)/(average tumor volume at the end of treatment in the vehicle control group−average tumor volume at the beginning of treatment in the vehicle control group)]×[…].
Relative tumor proliferation rate T/C (%): The calculation formula was as follows: T/C %=TRTV/CRTV at the beginning of the treatment (TRTV: treatment group RTV; CRTV: negative control group RTV). The relative tumor volume (RTV) was calculated according to the results of tumor measurement. The calculation formula was RTV=Vt/V0, wherein V0 is the average tumor volume measured during administration of the groups (i.e. d0), and Vt is the average tumor volume during a certain measurement, the TRTV and CRTV were taken on the same day.
Statistical analysis included the mean and standard error (SEM) of tumor volume at each time point in each group. […] The comparison between two groups was analyzed by T-test, and the comparison between three or more groups was analyzed by one-way ANOVA.

Take `CNC(=O)c1cccc(-c2ccc3c(N4CCOC[C@@H]4C)nc(N4CCOC[C@@H]4C)nc3n2)c1` [AZD2014, reference compound]: the IC50 – broadly, the concentration that inhibits the measured activity by half – in the assay on MCF-7 cell worked out at 95 nM. In addition, in assay [1] (7.5 mg/kg), the T/C (commonly the result in the treated group divided by that in the control group, in per cent) amounted to 53.95%; the TGI was 61.10%; the “RTV (27th day)” value is listed as 2.25 ± 0.47; the “Tumor volume (27th day)” value worked out at 315 ± 65 mm^3. Moreover, the “Tumor volume (day 0)” value in assay [1] (7.5 mg/kg) was 142 ± 9 mm^3. Also, in assay [1] (15 mg/kg), the T/C came out at 20.36%; the TGI was 104% and 104.37%; the “difference compared with the vehicle control group” value is “significant difference”; the “RTV (27th day)” value is 0.85 ± 0.26. In assay [1] (15 mg/kg), the “Tumor volume (27th day)” value amounted to 121 ± 41 mm^3 and the “Tumor volume (day 0)” value turned out to be 141 ± 8 mm^3.
As for `CNC(=O)c1cccc(-c2ccc3c(N4CCOC[C@@H]4C)nc(N4CCOC5(CCC5)C4)nc3n2)c1` [Embodiment 23], the midpoint of inhibition in the assay on MCF-7 cell, the IC50, lay at 163 nM. In assay [1] (7.5 mg/kg), the T/C came out at 83.52%, the TGI came out at 22.14%, the “RTV (27th day)” value came out at 3.48 ± 0.37 and the “Tumor volume (27th day)” value is on record as 489 ± 51 mm^3. For the same compound, in assay [1] (7.5 mg/kg), the “Tumor volume (day 0)” value was 142 ± 9 mm^3. In assay [1] (15 mg/kg), the T/C was determined as 54.13%, the TGI is reported as 59.05%, the “RTV (27th day)” value is on record as 2.26 ± 0.48 and the “Tumor volume (27th day)” value was 324 ± 79 mm^3. Also, the “Tumor volume (day 0)” value in assay [1] (15 mg/kg) stood at 141 ± 9 mm^3. Moreover, in assay [1] (30 mg/kg), the T/C was 25.50%, the TGI worked out at 98.33%, the “difference compared with the vehicle control group” value was “significant difference” and the “RTV (27th day)” value came out at 1.06 ± 0.17. In addition, in assay [1] (30 mg/kg), the “Tumor volume (27th day)” value is 150 ± 26 mm^3 and the “Tumor volume (day 0)” value was determined as 141 ± 8 mm^3. In addition, the TGI in assay [1] (30 mg/kg, listed as embodiment 23) was 98%.
`C[C@H]1COCCN1c1nc(N2CCOC3(CC3)C2)nc2nc(-c3cccc(C(N)=O)c3)ccc12` [Embodiment 51] yielded an IC50 in the assay with MCF-7 cell of 208 nM. In assay [1] (15 mg/kg), the T/C was determined as 57.84%, the TGI was 59.27%, the “RTV (27th day)” value turned out to be 2.41 ± 0.36 and the “Tumor volume (27th day)” value was 323 ± 25 mm^3. Also, in assay [1] (15 mg/kg), the “Tumor volume (day 0)” value is given as 142 ± 11 mm^3.
